The term pIC50 denotes −log10 of the IC50, conventionally taken in molar units. High values mean a low IC50, low ones a high IC50.

The text below walks through data of patent US10294248B2, “Beta-lactamase inhibitors” (VenatoRx Pharmaceuticals, Inc., priority 2013, dated 2019).

The test system of assay [1] is K. pneumoniae A-1797 expressing KPC-2 and VIM-4. Briefly: Broth microdilution MIC, K. pneumoniae A-1797 KPC-2/VIM-4. The format is cell-based. As to conditions: fixed 4 μg/mL meropenem; CAMHB, 16-20 hours at 37° C. In outline:
(§1)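 Growth inhibition by test compound in presence of a fixed 4 μg/ml β-lactam; CLSI microdilution in CAMHB, visual endpoint after overnight 37° C incubation.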
A general note: Broth dilution looks for growth in wells or tubes with falling amounts of substance.

The target of assay [2] is T1, p99 AmpC β-lactamase (Class C) (Enterobacter cloacae, UniProt P05364).
T1 construct: made in house; host or cells: E. coli BL21(DE3)
T1 sequence (P05364 21-381): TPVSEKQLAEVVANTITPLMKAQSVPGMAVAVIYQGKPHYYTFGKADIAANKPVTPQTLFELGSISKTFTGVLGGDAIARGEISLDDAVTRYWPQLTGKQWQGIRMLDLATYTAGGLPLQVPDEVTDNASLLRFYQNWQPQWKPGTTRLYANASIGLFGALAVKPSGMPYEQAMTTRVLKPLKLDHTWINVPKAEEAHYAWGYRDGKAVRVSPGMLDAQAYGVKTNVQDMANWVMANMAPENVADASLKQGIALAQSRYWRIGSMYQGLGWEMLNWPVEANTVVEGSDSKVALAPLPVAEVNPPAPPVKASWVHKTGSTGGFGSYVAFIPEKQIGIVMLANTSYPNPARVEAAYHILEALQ
Briefly: β-Lactamase inhibition, p99 AmpC. The format is biochemical.

The target of assay [3] is T2, KPC-2 β-lactamase (Class A carbapenemase) (Klebsiella pneumoniae, UniProt Q9F663).
T2 construct: made in house; host or cells: E. coli BL21(DE3)
T2 sequence (Q9F663 25-293, looked up): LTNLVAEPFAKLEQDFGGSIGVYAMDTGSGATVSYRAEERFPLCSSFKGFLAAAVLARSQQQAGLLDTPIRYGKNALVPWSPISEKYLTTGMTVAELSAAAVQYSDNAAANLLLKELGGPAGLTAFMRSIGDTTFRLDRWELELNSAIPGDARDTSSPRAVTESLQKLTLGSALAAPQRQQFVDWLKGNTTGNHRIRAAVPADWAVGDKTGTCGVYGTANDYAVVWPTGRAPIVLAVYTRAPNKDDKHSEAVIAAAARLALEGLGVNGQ
Nature of the assay: β-Lactamase inhibition, KPC-2. It is filed as biochemical. The following applies: imipenem substrate, 300 nm; 15 min preincubation at 37° C., PBS pH 7.4. The method in brief:
(§2)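 Native untagged enzymes expressed in E. coli BL21(DE3), purified by cation exchange and gel filtration. Inhibitor preincubated with enzyme 15 min at 37 °C; hydrolysis followed by absorbance: imipenem at 300 nm for KPC-2, cefotaxime at 260 nm for SHV-5. IC50 as concentration halving initial hydrolysis rate versus inhibitor-free wells.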

The target of assay [4] is T3, OXA-1 β-lactamase (Class D oxacillinase) (Escherichia coli, UniProt P13661).
T3 construct: made in house; host or cells: E. coli BL21(DE3)
T3 sequence (P13661 26-276): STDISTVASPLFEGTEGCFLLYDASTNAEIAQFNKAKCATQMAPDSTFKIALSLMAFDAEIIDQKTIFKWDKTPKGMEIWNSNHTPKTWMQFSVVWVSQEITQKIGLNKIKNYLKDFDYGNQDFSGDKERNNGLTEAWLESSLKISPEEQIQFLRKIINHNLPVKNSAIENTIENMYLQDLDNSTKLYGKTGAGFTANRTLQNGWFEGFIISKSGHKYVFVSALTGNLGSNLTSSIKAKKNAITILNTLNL
Briefly: β-Lactamase inhibition, OXA-1. The format is biochemical. As to conditions: nitrocefin 100 μM, 486 nm; 15 min preincubation at 37° C., PBS pH 7.4. In outline:
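Untagged enzyme from E. coli BL21(DE3), purified by Capto S then Superdex 75; 15 min 37 °C preincubation with inhibitor; KPC-2 read with imipenem at 300 nm, SHV-5 with cefotaxime at 260 nm, OXA-1 with nitrocefin 100 μM final at 486 nm; 10 min kinetic read; IC50 vs uninhibited wells.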

Assay [5] has as its target T4, SHV-5 β-lactamase (Class A ESBL) (Klebsiella pneumoniae, UniProt P0A3M1).
T4 construct: made in house; host or cells: E. coli BL21(DE3)
Briefly: β-Lactamase inhibition, SHV-5. The format is biochemical. The method in brief: as §2

Assay [6] relates to E. coli ESBL4 expressing CTX-M-15. Nature of the assay: Broth microdilution MIC, E. coli ESBL4 CTX-M-15. The format is cell-based. As to conditions: fixed 4 μg/mL ceftazidime; CAMHB, 16-20 hours at 37° C. In outline: as §1
The subject of assay [7] is P. aeruginosa Ps296 expressing VIM-2. Nature of the assay: Broth microdilution MIC, P. aeruginosa Ps296 VIM-2. The format is cell-based. As to conditions: fixed 4 μg/mL meropenem; CAMHB, 16-20 hours at 37° C. In outline:
as §1

The subject of assay [8] is E. cloacae 144200 expressing Class C P99 AmpC. Nature of the assay: Broth microdilution MIC, E. cloacae 144200 p99 AmpC. It is filed as cell-based. The following applies: fixed 4 μg/mL ceftazidime; CAMHB, 16-20 hours at 37° C. The method in brief: as §1
Assay [9] has as its system K. pneumoniae 156319 expressing KPC-3. Briefly: Broth microdilution MIC, K. pneumoniae 156319 KPC-3. The format is cell-based. As to conditions: fixed 4 μg/mL meropenem; CAMHB, 16-20 hours at 37° C. In outline:
as §1

The target of assay [10] is T5, VIM-2 metallo-β-lactamase (Class B) (Pseudomonas aeruginosa, UniProt Q9K2N0).
T5 construct: made in house; host or cells: E. coli BL21(DE3)
Briefly: β-Lactamase inhibition, VIM-2. It is filed as biochemical. The following applies: nitrocefin 100 μM, 486 nm; 15 min preincubation at 37° C., PBS pH 7.4. In outline: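 IC50 reflects the inhibitor concentration cutting the initial nitrocefin hydrolysis rate by half, compared with control wells lacking inhibitor. Substrate was used at 100 μM final after a 15 min, 37 °C enzyme–inhibitor preincubation.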

Assay [11] deals with S. aureus MSSA-7 producing penicillinase PC-1. Nature of the assay: Broth microdilution MIC, S. aureus MSSA-7 PC-1. The format is cell-based. The following applies: fixed 4 μg/mL piperacillin; CAMHB, 16-20 hours at 37° C. The method in brief:
as §1

pIC50: −log10 of the molar value.

T4 sequence (P0A3M1 22-286): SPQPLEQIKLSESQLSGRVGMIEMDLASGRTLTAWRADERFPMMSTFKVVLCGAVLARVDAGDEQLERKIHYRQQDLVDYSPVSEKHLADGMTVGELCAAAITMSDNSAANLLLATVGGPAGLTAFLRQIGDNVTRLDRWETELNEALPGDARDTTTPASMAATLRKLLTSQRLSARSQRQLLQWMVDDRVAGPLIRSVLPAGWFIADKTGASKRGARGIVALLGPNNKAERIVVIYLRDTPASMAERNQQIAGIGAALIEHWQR

Take `O=C(O)c1cccc2c1OB(O)[C@@H](NC(=O)C1CNC1)C2` [Example 46, (R)-3-(azetidine-3-carboxamido)-2-hydroxy-3,4-dihydro-2H-benzo[e][1,2]oxaborinine-8-carboxylic acid]: the “MIC of example compound in presence of fixed β-lactam: Fixed Mero, K. P. A-1797 KPC-2 VIM-4” value (“MIC … K. P. A-1797 KPC-2 VIM-4” below) in [1] was “A (an MIC of the fixed β-lactam antibiotic in the presence of >32 μg/mL of a β-lactamase inhibitor)”. In addition, the negative logarithm of the IC50 (pIC50) in assay [2] was more than 7.00; in assay [3], 6.00 to 7.00; in [4] it was 6.00 to 7.00; in [5], more than 7.00; in assay [10] it was 5.00 to 6.00. For the same compound, the “MIC of example compound in presence of fixed β-lactam: Fixed CAZ, E. coli ESBL4 CTX-M-15” value (“MIC of example compound … E. coli ESBL4 CTX-M-15” below) in assay [6] is “C (the MIC in the presence of <4 μg/mL of a β-lactamase inhibitor)”. The “MIC of example compound in presence of fixed β-lactam: Fixed Mero, P. aerug. Ps296 VIM-2” value (from here on “MIC of example compound … P. aerug. Ps296 VIM-2”) in assay [7] is given as “A (an MIC of the fixed β-lactam antibiotic in the presence of >32 μg/mL of a β-lactamase inhibitor)”. In assay [8], the “MIC of example compound in presence of fixed β-lactam: Fixed CAZ, E. cl. 144200 p99 AmpC” value (from here on “MIC of example compound … E. cl. 144200 p99 AmpC”) is “C (the MIC in the presence of <4 μg/mL of a β-lactamase inhibitor)”. Besides, the “MIC of example compound in presence of fixed β-lactam: Fixed Mero, K. P. 156319 KPC-3” value (shortened to “MIC of example compound … K. P. 156319 KPC-3”) in [9] was “B (the MIC in the presence of between 8 and 32 μg/mL of a β-lactamase inhibitor)”. For the same compound, the “MIC of example compound in presence of fixed β-lactam: Fixed Pip, S. aureus MSSA-7 PC-1” value (“MIC of example compound … S. aureus MSSA-7 PC-1” below) in assay [11] is recorded as “C (the MIC in the presence of <4 μg/mL of a β-lactamase inhibitor)”.
As to `CN(C)c1ccc(NC(=O)N2CC(C(=O)N[C@H]3Cc4cccc(C(=O)O)c4OB3O)C2)cc1` [Example 47, (R)-3-(1-(4-(dimethylamino)phenylcarbamoyl)azetidine-3-carboxamido)-2-hydroxy-3,4-dihydro-2H-benzo[e][1,2]oxaborinine-8-carboxylic acid], the “MIC … K. P. A-1797 KPC-2 VIM-4” value in [1] is “B (the MIC in the presence of between 8 and 32 μg/mL of a β-lactamase inhibitor)”. Moreover, the negative-log IC50 (pIC50) in assay [2] was more than 7.00; in [3], more than 7.00; in [4] it was 6.00 to 7.00; in assay [5], more than 7.00; in assay [10] it was 6.00 to 7.00. The “MIC of example compound … E. coli ESBL4 CTX-M-15” value in assay [6] is “C (the MIC in the presence of <4 μg/mL of a β-lactamase inhibitor)”. Moreover, the “MIC of example compound … P. aerug. Ps296 VIM-2” value in [7] was “C (the MIC in the presence of <4 μg/mL of a β-lactamase inhibitor)”. Moreover, the “MIC of example compound … E. cl. 144200 p99 AmpC” value in assay [8] is given as “C (the MIC in the presence of <4 μg/mL of a β-lactamase inhibitor)”. Moreover, the “MIC of example compound … K. P. 156319 KPC-3” value in [9] is reported as “C (the MIC in the presence of <4 μg/mL of a β-lactamase inhibitor)”. The “MIC of example compound … S. aureus MSSA-7 PC-1” value in assay [11] is “B (the MIC in the presence of between 8 and 32 μg/mL of a β-lactamase inhibitor)”.
Consider `O=C(O)c1cccc2c1OB(O)[C@@H](NC(=O)C1CN(c3ncccn3)C1)C2` [Example 48, (R)-2-hydroxy-3-(1-(pyrimidin-2-yl)azetidine-3-carboxamido)-3,4-dihydro-2H-benzo[e][1,2]oxaborinine-8-carboxylic acid], for which the “MIC … K. P. A-1797 KPC-2 VIM-4” value in assay [1] is “B (the MIC in the presence of between 8 and 32 μg/mL of a β-lactamase inhibitor)”. Besides, the negative logarithm of the IC50 (pIC50) is more than 7.00 in [2]; more than 7.00 in [3]; more than 7.00 in assay [4]; more than 7.00 in assay [5]; 5.00 to 6.00 in [10]. The “MIC of example compound … E. coli ESBL4 CTX-M-15” value in assay [6] was “C (the MIC in the presence of <4 μg/mL of a β-lactamase inhibitor)”. The “MIC of example compound … P. aerug. Ps296 VIM-2” value in [7] was “C (the MIC in the presence of <4 μg/mL of a β-lactamase inhibitor)”. For the same compound, in assay [8], the “MIC of example compound … E. cl. 144200 p99 AmpC” value is listed as “C (the MIC in the presence of <4 μg/mL of a β-lactamase inhibitor)”. Besides, the “MIC of example compound … K. P. 156319 KPC-3” value in assay [9] is recorded as “C (the MIC in the presence of <4 μg/mL of a β-lactamase inhibitor)”. For the same compound, in assay [11], the “MIC of example compound … S. aureus MSSA-7 PC-1” value is reported as “C (the MIC in the presence of <4 μg/mL of a β-lactamase inhibitor)”.
Consider `NC1(C(=O)N[C@H]2Cc3cccc(C(=O)O)c3OB2O)CCNCC1` [Example 49, 3-[(4-Amino-piperidine-4-carbonyl)-amino]-2-hydroxy-3,4-dihydro-2H-benzo[e][1,2]oxaborinine-8-carboxylic acid], for which the “MIC … K. P. A-1797 KPC-2 VIM-4” value in assay [1] is “A (an MIC of the fixed β-lactam antibiotic in the presence of >32 μg/mL of a β-lactamase inhibitor)”. The pIC50 in [2] is more than 7.00; in [3], more than 7.00; in assay [4], more than 7.00; in [5], more than 7.00; in assay [10], 5.00 to 6.00. In addition, the “MIC of example compound … E. coli ESBL4 CTX-M-15” value in assay [6] was “C (the MIC in the presence of <4 μg/mL of a β-lactamase inhibitor)”. Besides, the “MIC of example compound … P. aerug. Ps296 VIM-2” value in assay [7] was “B (the MIC in the presence of between 8 and 32 μg/mL of a β-lactamase inhibitor)”. Also, the “MIC of example compound … E. cl. 144200 p99 AmpC” value in assay [8] is “C (the MIC in the presence of <4 μg/mL of a β-lactamase inhibitor)”. In assay [9], the “MIC of example compound … K. P. 156319 KPC-3” value was “C (the MIC in the presence of <4 μg/mL of a β-lactamase inhibitor)”. In [11], the “MIC of example compound … S. aureus MSSA-7 PC-1” value is on record as “C (the MIC in the presence of <4 μg/mL of a β-lactamase inhibitor)”.
Take `O=C(O)c1cccc2c1OB(O)[C@@H](NC(=O)C1CNCCN1)C2` (stereo partly shown) [Example 50, 2-Hydroxy-3-[(piperazine-2-carbonyl)-amino]-3,4-dihydro-2H-benzo[e][1,2]oxaborinine-8-carboxylic acid]: in assay [1], the “MIC … K. P. A-1797 KPC-2 VIM-4” value was “A (an MIC of the fixed β-lactam antibiotic in the presence of >32 μg/mL of a β-lactamase inhibitor)”. Besides, the negative logarithm of the IC50 (pIC50) is more than 7.00 in assay [2]; more than 7.00 in assay [3]; more than 7.00 in assay [4]; more than 7.00 in assay [5]; 5.00 to 6.00 in [10]. The “MIC of example compound … E. coli ESBL4 CTX-M-15” value in [6] is “C (the MIC in the presence of <4 μg/mL of a β-lactamase inhibitor)”. Moreover, in [7], the “MIC of example compound … P. aerug. Ps296 VIM-2” value is on record as “C (the MIC in the presence of <4 μg/mL of a β-lactamase inhibitor)”. Further, in assay [8], the “MIC of example compound … E. cl. 144200 p99 AmpC” value is given as “C (the MIC in the presence of <4 μg/mL of a β-lactamase inhibitor)”. Moreover, the “MIC of example compound … K. P. 156319 KPC-3” value in [9] was “C (the MIC in the presence of <4 μg/mL of a β-lactamase inhibitor)”. In addition, in assay [11], the “MIC of example compound … S. aureus MSSA-7 PC-1” value was “C (the MIC in the presence of <4 μg/mL of a β-lactamase inhibitor)”.
